# Assay results: article PMC12677844, “Profiling Inhibitor Scaffolds for the Cancer Target Jumonji‐C Domain‐Containing Protein 6” (Chemmedchem, 2025)
# pIC50: −log10 of the molar value. Where “and” joins values, the source holds several entries; their conditions need not be identical. Equal values may be shown once. Read-outs that look alike come from different tables or passages of the source.
# Legend:
# full‐length His6‐JMJD6 = biological target: T1, full‐length His6‐JMJD6 (Homo sapiens, UniProt Q6NYC1); experiment: JMJD6 SPE–MS inhibition assay (BRD4_511–550 hydroxylation); assay type: biochemical; conditions: His6‐JMJD6 0.05 µM, 2OG 100 µM, FAS 2 µM, BRD4_511–550 1 µM, L‐ascorbic acid 100 µM, means of two independent runs (mean ± SD)
# T1 construct: Isolated recombinant full‐length human JMJD6 with a N‐terminal His6‐tag; made in house; host or cells: Escherichia coli BL21 (DE3)
# Description: Co‐substrate concentrations were chosen based on reported SPE–MS kinetic parameters for the JMJD6‐catalyzed BRD4_511–550 monohydroxylation reaction.^[ [56] ^] […] Since JMJD6 has a relatively high 2OG Kmapp , the JMJD6 SPE–MS inhibition assay employs a 2OG concentration which is relatively high compared to most other 2OG oxygenase SPE–MS assays, possibly more accurately reflecting cellular 2OG concentrations.^[ [59] ^, [60] ^] Likely saturating concentrations of LAA (100 µM) and FAS (2 µM) were used.
# JMJD6 catalyzes oxidation of BRD4_511–550 to give multiple hydroxylation products,^[ [56] ^] an observation potentially complicating data analysis.
# Isolated recombinant full‐length human JMJD6 with a N‐terminal His6‐tag was produced in Escherichia coli BL21 (DE3) cells and purified as reported.^[ [1] ^, [56] ^] […] Purified His6‐JMJD6 was stored at −78 °C; fresh aliquots were used for all JMJD6 assays.
# DMSO and 2,4‐PDCA (final assay concentration: 500 µM) were used as negative and positive inhibition controls, respectively. Each reaction was performed in technical duplicates in adjacent wells of the assay plates.
# Cosubstrate/cofactor stock solutions (L‐ascorbic acid, LAA: 50 mM in Milli‐Q Ultrapure grade water; 2‐oxoglutarate, 2OG: 20 mM in Milli‐Q Ultrapure grade water; ammonium iron(II) sulfate hexahydrate, FAS, (NH4)2Fe(SO4)2·6H2O: […] in 20 mM aqueous HCl diluted to 1 mM in Milli‐Q Ultrapure grade water) were freshly prepared from commercial solids (Sigma–Aldrich) on the day of the experiment. BRD4_511–550 ([…]) was synthesized by solid‐phase peptide synthesis and was purified by GL Biochem (Shanghai) Ltd (Shanghai, China). Stock solutions of BRD4_511–550 (10 mM in water) were stored at −20 °C.
# The plates were centrifuged (1000 rpm, 5 s) and incubated for 15 min at ambient temperature. The substrate mixture (2 × final concentration), containing BRD4_511–550 (2 µM), LAA (200 µM), 2OG (200 µM), and FAS (4 µM) in Tris buffer (50 mM; pH 7.5), was then dispensed across the plates (25 µL per well) using the multidrop dispenser. The plates were centrifuged (1000 rpm, 5 s) and incubated for 20 min at ambient temperature. The enzyme reaction was then stopped by the addition of 10%v/v aqueous formic acid (5 μL per well) using a 16‐channel electronic pipette (ThermoFischer Scientific). The plates were then centrifuged (1000 rpm, 30 s) and analyzed by MS.
# Assay samples were aspirated under vacuum for 0.4 s and then loaded onto a C4 SPE cartridge. After loading, the C4 SPE cartridge was washed with 0.1%v/v aqueous formic acid to remove nonvolatile buffer salts (5 s, 1.5 mL min^−1). BRD4_511–550 and the corresponding hydroxylated product peptides were eluted from the SPE cartridge with 0.1%v/v aqueous formic acid in 75/25v/v acetonitrile/water into the mass spectrometer (5 s, 1.6 mL min^−1); the SPE cartridge was subsequently re‐equilibrated with 0.1%v/v aqueous formic acid (1 s, 1.25 mL min^−1).
# Peaks corresponding to the m/z + 5 charge states of BRD4_511–550 and the corresponding mono‐ and dihydroxylated product peptides were extracted from the ion chromatogram and integrated using RapidFire Integrator 4.3.0 (Agilent).
# From the raw data, dose–response curves (normalized to the 2,4‐PDCA and DMSO controls) were obtained by nonlinear regression (GraphPad Prism 5), which were used to determine IC50 values.
# JMJD6 [1] = system: JMJD6; set-up: method as in PMID 34581506; conditions: 10 µM JMJD6, 100 µM LUC7L2_267–278; ref [35]; read-out: reported IC50 (JMJD6, MALDI‐TOF MS) (converted); cited from earlier work
# JMJD6 [2] = system: JMJD6; set-up: method as in PMID 31857835; conditions: fluorescence‐based assay; ref [32]; read-out: reported IC50 (JMJD6‐catalyzed histone dimethylarginine N‐demethylation); cited from earlier work
# JMJD6 [3] = system: JMJD6; set-up: method as in PMID 35969736; conditions: Succinate‐Glo and MALDI‐TOF assays; ref [31]; read-out: reported IC50 (JMJD6 lysine hydroxylation); cited from earlier work
# PHD2 = system: PHD2; set-up: method as in PMID 39291299; conditions: isolated PHD2; ref [100]; cited from earlier work
# JMJD6 [4] = system: JMJD6; set-up: method as in PMID 31637004; conditions: assay conditions not described; ref [20]; read-out: reported IC50 (JMJD6) (converted); cited from earlier work
SMILES,"pIC50 (full‐length His6‐JMJD6; read-out: IC50 (JMJD6, SPE–MS))",IC50 (JMJD6 [1]),also measured
O=C(O)c1cnn(-c2nc3cc(OC(F)(F)F)c(Cl)cc3[nH]2)c1 [JNJ‐42041935],< 4.30,–,–
CN(c1ccccc1)c1ccc2c(c1)CCC[C@H]2CNc1cnccc1C(=O)O [QC6352],~5.55 and 5.55,–,–
O=C(N/N=C/c1c(O)ccc2ccccc12)c1ccncc1 [AS‐8351],~5.16 and 5.16,–,–
O=C(O)CC(O)(CC(=O)O)C(=O)O [Citrate],< 4.30,987 µM,–
CC(=O)C(=O)O [Pyruvate],< 4.30,2380 µM,–
O=C(O)Cc1csc(=NC(=O)CS(=O)(=O)Cc2ccc3ccccc3c2)n1O [BNS],~6.80 and 6.80,–,–
O=C(O)c1ccc(O)c2ncccc12 [IOX1],~5.19 and 5.19,~10 µM and 10 µM,–
Cc1ccc2oc(=O)c(-c3nc4cnccc4[nH]3)cc2c1 [WL12],< 4.30,–,pIC50 (JMJD6 [2]): ~6.66 and 6.66; pIC50 (JMJD6 [3]): < 4.00
Cc1nc(C(=O)NCC(=O)O)c(O)c2ccc(Oc3ccccc3)cc12 [Roxadustat],< 4.30,23 µM,–
"O=C(O)CNC(=O)C(=O)O [NOG, N‐oxalylglycine]",< 4.30,296 µM,–
O=C(O)CCC(=O)NO [Compound 1],~5.44 and 5.44,25 µM,–
O=C(NCC1CCC(C(F)(F)F)CC1)c1cnc(-n2cccn2)cc1O (stereo not shown) [IOX5],< 4.30,–,–
CC(C)c1cc(C(=O)N2CC[C@@H](NC(=O)C3CC3)C2)[nH]n1 [KDM5A‐IN‐1],< 4.30,–,–
O=C(O)CNC(=O)c1ncc(-c2cccc(Cl)c2)cc1O [Vadadustat],~4.77 and 4.77,7 µM,–
O=C(O)CC[C@@H](O)C(=O)O [D‐2‐Hydroxyglutarate],< 4.30,622 µM,–
O=C(O)CNC(=O)c1c(O)cc(CCc2ccccc2)n2ncnc12 [Enarodustat],~5.92 and 5.92,–,pIC50 (PHD2): 6.42
Oc1ccnc(N/N=C/c2ccccc2O)n1 [SKLB325],~5.17 and 5.17,–,IC50 (JMJD6 [4]): 0.78 µM
O=C(O)CNC(=O)C1C(=O)N(C2CCCCC2)C(=O)N(C2CCCCC2)C1=O [Daprodustat],–,10 µM,"pIC50 (full‐length His6‐JMJD6; IC50 (JMJD6, SPE–MS)): ~4.55 and 4.55"
O=C(O)CNC(=O)c1c(O)c2ccccc2n(Cc2ccccc2)c1=O [IOX2],~4.72 and 5.15,–,–
O=C(O)/C=C/C(=O)N(O)CCCCNCc1ccc(COC(=O)Nc2cccc3ccccc23)cc1 [JMJD histone demethylase inhibitor III],~7.00 and 7.00,–,–
O=c1c2ccccc2[se]n1-c1ccccc1 [Ebselen],< 4.30,–,–
